Experimental data published in US9302999B2, “Substituted triazoles as herbicides” (E. I. DU PONT DE NEMOURS AND COMPANY, priority 2012, dated 2016).

Assays:
Assay type in all cases: in vivo
[1] = tested on: chickweed (common chickweed, Stellaria media); assay: Test D pre-/postemergence: chickweed
Outline: (§1)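 Pre- and postemergence herbicide screen. Soil for pre: silt loam; post medium: peat moss, vermiculite, wetting agent, starter nutrients. Plant stage at post: 1- to 4-leaf. Readout: visual % control, 14–21 days.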

[2] = tested on: Russian thistle (Salsola iberica); assay: Test D pre-/postemergence: Russian thistle; conditions: Postemergence; for Plant response rating, Russian Thistle: 16 g ai/ha, scale 0 to 100
Outline: as §1

[3] = tested on: buckwheat, wild (wild buckwheat, Polygonum convolvulus); assay: Test D pre-/postemergence: buckwheat, wild
Outline: as §1

[4] = tested on: waterhemp (common waterhemp, Amaranthus rudis); assay: Test F pre-/postemergence: waterhemp; conditions: Preemergence
Outline: (§2)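 Preemergence treatment of seeds sown in silt loam soil, and postemergence treatment of plants 2–18 cm tall (1- to 4-leaf stage), with compounds in non-phytotoxic solvent plus surfactant. Greenhouse 14–21 days, then visual rating versus controls on 0–100 scale (100 = complete control).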

[5] = tested on: panicum, fall (fall panicum Panicum dichotomiflorum); assay: Test F pre-/postemergence: panicum, fall
Source text: (§3) Seeds of plant species selected from corn (Zea mays), soybean (Glycine max), velvetleaf (Abutilon theophrasti), lambsquarters (Chenopodium album), poinsettia, wild (wild poinsettia, Euphorbia heterophylla), pigweed, palmer (palmer pigweed, Amaranthus palmeri), waterhemp (common waterhemp, Amaranthus rudis), surinam grass (Brachiaria decumbens), crabgrass, Brazil (Brazilian crabgrass, Digitaria horizontalis), panicum, fall (fall panicum Panicum dichotomiflorum), crabgrass, large (large crabgrass, Digitaria sanguinalis), foxtail, giant (giant foxtail, Setaria faberii), foxtail, green (green foxtail Setaria viridis), goosegrass (Eleusine indica), ragweed (common ragweed, Ambrosia elatior), barnyardgrass (Echinochloa crus-galli), sandbur (southern sandbur, Cenchrus echinatus), arrowleaf sida (Sida rhombifolia), ryegrass, Italian (Italian ryegrass, Lolium multiflorum), dayflower, VA (Virginia (VA) dayflower, Commelina virginica), field bindweed (Convolvulus arvensis), cocklebur (common cocklebur, Xanthium strumarium), morningglory (Ipomoea coccinea), nightshade (eastern black nightshade, Solanum ptycanthum), kochia (Kochia scoparia), nutsedge, yellow (yellow nutsedge, Cyperus esculentus), johnsongrass (Sorghum halepense), smartweed (ladysthumb smartweed, Polygonum persicaria), and beggarticks (hairy beggarticks, Bidens pilosa), were planted into a silt loam soil and treated preemergence with test chemicals formulated in a non-phytotoxic solvent mixture which included a surfactant. At the same time, plants selected from these crop and weed species and also pigweed (Amaranthus retroflexus), waterhemp_RES1 (ALS/Triazine resistant common waterhemp, Amaranthus rudis) and waterhemp_RES2 (ALS/HPPD resistant common waterhemp, Amaranthus rudis) were planted in pots containing a planting medium comprising spaghnum peat moss, vermiculite, wetting agent and starter nutrients treated with postemergence applications of some of the test chemicals formulated in the same manner. Plants ranged in height from 2 to 18 cm for postemergence treatments (1- to 4-leaf stage).
(§4) Treated plants and controls were maintained in a greenhouse for 14 to 21 days, after which time all species were compared to controls and visually evaluated. Plant response ratings, summarized in Table E, are based on a scale of 0 to 100 where 0 is no effect and 100 is complete control. A dash (-) response means no test result.

[6] = tested on: goosegrass (Eleusine indica); assay: Test F pre-/postemergence: goosegrass; conditions: Preemergence
Outline: as §2

[7] = tested on: cocklebur (common cocklebur, Xanthium strumarium); assay: Test F pre-/postemergence: cocklebur; conditions: Preemergence
Source text: as §3, §4

[8] = tested on: morningglory (Ipomoea coccinea); assay: Test F pre-/postemergence: morningglory; conditions: Preemergence
Outline: as §2

[9] = Postemergence, 31 g ai/ha, scale 0 to 100 (0 no effect, 100 complete control)
[10] = Postemergence, 62 g ai/ha, scale 0 to 100 (0 no effect, 100 complete control)
[11] = Postemergence, 125 g ai/ha, scale 0 to 100, 0 no effect, 100 complete control
[12] = Postemergence, 16 g ai/ha, scale 0 to 100
[13] = Preemergence, 16 g ai/ha, scale 0 to 100, 0 no effect, 100 complete control
[14] = Preemergence, 31 g ai/ha, scale 0 to 100, 0 no effect, 100 complete control
[15] = Preemergence, 62 g ai/ha, scale 0 to 100
[16] = Preemergence, 125 g ai/ha, scale 0 to 100
[17] = 31 g ai/ha, scale 0 to 100 (0 no effect, 100 complete control)
[18] = 62 g ai/ha, scale 0 to 100 (0 no effect, 100 complete control)
[19] = 125 g ai/ha, scale 0 to 100, 0 no effect, 100 complete control
[20] = 8 g ai/ha, scale 0 to 100, 0 no effect, 100 complete control
[21] = 16 g ai/ha, scale 0 to 100, 0 no effect, 100 complete control
[22] = 31 g ai/ha, scale 0 to 100, 0 no effect, 100 complete control

CCOc1nn(-c2ccc(F)cc2)nc1Cc1ccnc(C(F)(F)F)c1 [Compound 196, 4-[[5-ethoxy-2-(4-fluorophenyl)-2H-1,2,3-triazol-4-yl]methyl]-2-(trifluoromethyl)pyridine]
Plant response rating: Chickweed [1, 9]: 85 | Plant response rating: Chickweed [1, 10]: 95 | Plant response rating: Chickweed [1, 11]: 100 | Plant response rating, Chickweed [1, 12]: 70 | Plant response rating, Chickweed [1, 13]: 50 | Plant response rating, Chickweed [1, 14]: 65 | Plant response rating, Chickweed [1, 15]: 100 | Plant response rating, Chickweed [1, 16]: 100 | Plant response rating: Russian Thistle [2, 17]: 90 | Plant response rating: Russian Thistle [2, 18]: 80 | Plant response rating: Russian Thistle [2, 19]: 75 | Plant response rating, Russian Thistle [2]: 80 | Plant response rating: Buckwheat, Wild [3, 9]: 70 | Plant response rating: Buckwheat, Wild [3, 10]: 90 | Plant response rating: Buckwheat, Wild [3, 11]: 95 | Plant response rating, Buckwheat, Wild [3, 12]: 50 | Plant response rating, Buckwheat, Wild [3, 13]: 60 | Plant response rating, Buckwheat, Wild [3, 14]: 45 | Plant response rating, Buckwheat, Wild [3, 15]: 70 | Plant response rating, Buckwheat, Wild [3, 16]: 95 | Plant response rating, Waterhemp [4, 20]: 50 | Plant response rating, Waterhemp [4, 21]: 95 | Plant response rating, Waterhemp [4, 22]: 98 | Plant response rating, Waterhemp ([4]; 125 g ai/ha, scale 0 to 100): 100 | Plant response rating, Panicum, Fall ([5]; Postemergence, 8 g ai/ha, scale 0 to 100): 20 | Plant response rating, Panicum, Fall [5, 12]: 40 | Plant response rating, Panicum, Fall ([5]; Postemergence, 31 g ai/ha, scale 0 to 100): 80 | Plant response rating, Panicum, Fall ([5]; Postemergence, 62 g ai/ha, scale 0 to 100): 85 | Plant response rating, Panicum, Fall ([5]; Postemergence, 125 g ai/ha, scale 0 to 100): 85 | Plant response rating, Panicum, Fall ([5]; Preemergence, 8 g ai/ha, scale 0 to 100, 0 no effect, 100 complete control): 25 | Plant response rating, Panicum, Fall [5, 14]: 98 | Plant response rating, Panicum, Fall [5, 16]: 100 | Plant response rating, Goosegrass [6, 20]: 40 | Plant response rating, Goosegrass [6, 21]: 60 | Plant response rating, Goosegrass [6, 22]: 75 | Plant response rating, Goosegrass ([6]; 62 g ai/ha, scale 0 to 100): 100 | Plant response rating, Goosegrass ([6]; 125 g ai/ha, scale 0 to 100): 100 | Plant response rating, Cocklebur [7, 22]: 0 | Plant response rating, Cocklebur ([7]; 62 g ai/ha, scale 0 to 100): 0 | Plant response rating, Cocklebur ([7]; 125 g ai/ha, scale 0 to 100): 0 | Plant response rating, Morningglory [8, 20]: 0 | Plant response rating, Morningglory [8, 21]: 30 | Plant response rating, Morningglory [8, 22]: 30 | Plant response rating, Morningglory ([8]; 125 g ai/ha, scale 0 to 100): 70

Cc1nn(-c2ccc(C(F)(F)F)c(F)c2)nc1Oc1ccnc(C(F)(F)F)c1 [Compound 148]
Plant response rating: Chickweed [1, 9]: 70 | Plant response rating: Chickweed [1, 10]: 80 | Plant response rating: Chickweed [1, 11]: 90 | Plant response rating, Chickweed [1, 12]: 60 | Plant response rating, Chickweed [1, 13]: 25 | Plant response rating, Chickweed [1, 14]: 60 | Plant response rating, Chickweed [1, 15]: 70 | Plant response rating, Chickweed [1, 16]: 100 | Plant response rating: Russian Thistle [2, 17]: 75 | Plant response rating: Russian Thistle [2, 18]: 85 | Plant response rating: Russian Thistle [2, 19]: 75 | Plant response rating, Russian Thistle [2]: 65 | Plant response rating: Buckwheat, Wild [3, 9]: 60 | Plant response rating: Buckwheat, Wild [3, 10]: 75 | Plant response rating: Buckwheat, Wild [3, 11]: 70 | Plant response rating, Buckwheat, Wild [3, 12]: 60 | Plant response rating, Buckwheat, Wild [3, 13]: 20 | Plant response rating, Buckwheat, Wild [3, 14]: 30 | Plant response rating, Buckwheat, Wild [3, 15]: 65 | Plant response rating, Buckwheat, Wild [3, 16]: 50 | Plant response rating, Waterhemp [4, 21]: 30 | Plant response rating, Waterhemp [4, 22]: 90 | Plant response rating, Waterhemp ([4]; 125 g ai/ha, scale 0 to 100): 100 | Plant response rating, Waterhemp ([4]; 250 g ai/ha, scale 0 to 100): 100 | Plant response rating, Panicum, Fall [5, 13]: 75 | Plant response rating, Panicum, Fall [5, 14]: 85 | Plant response rating, Panicum, Fall [5, 16]: 100 | Plant response rating, Panicum, Fall ([5]; Preemergence, 250 g ai/ha, scale 0 to 100): 100 | Plant response rating, Goosegrass [6, 21]: 25 | Plant response rating, Goosegrass [6, 22]: 98 | Plant response rating, Goosegrass ([6]; 62 g ai/ha, scale 0 to 100): 100 | Plant response rating, Goosegrass ([6]; 125 g ai/ha, scale 0 to 100): 100 | Plant response rating, Goosegrass ([6]; 250 g ai/ha, scale 0 to 100): 100 | Plant response rating, Cocklebur [7, 22]: 0 | Plant response rating, Cocklebur ([7]; 125 g ai/ha, scale 0 to 100): 0 | Plant response rating, Morningglory [8, 21]: 0 | Plant response rating, Morningglory [8, 22]: 30 | Plant response rating, Morningglory ([8]; 125 g ai/ha, scale 0 to 100): 50 | Plant response rating, Morningglory ([8]; 250 g ai/ha, scale 0 to 100): 70
